Measured values from PMC3049593 (British Journal of Cancer, 2011).

Key:
[1] = test system: FGF2-induced vascularisation of AngioSponge; assay: AngioSponge in vivo angiogenesis model (CD31/PECAM-1 staining); set-up: species or system mice; conditions: s.c. daily or twice-weekly, 10 days
Protocol: Angiogenesis in vivo was evaluated using the Angiosponge model in which subcutaneously implanted, agarose-captured FGF2 gelfoam sterile sponges (Pfizer, West Ryde, Australia) induces vascularisation over a 10-day period responsive to angiogenesis inhibition as determined by the number of vessels with identifiable lumen that stained positive for CD31/PECAM-1, an antigen present specifically on endothelial cells ([McCarty et al, 2002]). PG545 was administered s.c. on the flank distal to the AngioSponge implant. This method was also used to examine five medium-sized primary tumours from each group of Lewis Lung Carcinoma (LL/2)-bearing mice.
Cell lines, cell culture, reagents and compounds
Tumour cell lines were cultured in RPMI1640 or DMEM cell culture medium (Invitrogen, Mt Waverley, Australia), 10% foetal bovine serum (Invitrogen or Hyclone/Quantum Scientific), 100 IU/mL penicillin (Invitrogen), 100 µ g/mL streptomycin (Invitrogen or Sigma-Aldrich, Castle Hill, Australia). […]
staining. For quantification, three independent visual fields (20x magnification) were chosen and positive stained spots or vessels with identifiable lumen were counted.
Angiogenesis inhibition and induction were calculated using the equations: […]

coagulation = test system: coagulation; set-up: method as in Dredge et al, 2010; conditions: compared with PI-88 or earlier PG500 series compounds; ref Dredge et al, 2010; cited from earlier work

In the case of CC(C)CCC[C@@H](C)[C@H]1CCC2C3CCC4C[C@@H](O[C@@H]5O[C@H](COS(=O)(=O)[O-])[C@@H](O[C@H]6O[C@H](COS(=O)(=O)[O-])[C@@H](O[C@H]7O[C@H](COS(=O)(=O)[O-])[C@@H](O[C@H]8O[C@H](COS(=O)(=O)[O-])[C@@H](OS(=O)(=O)[O-])[C@H](OS(=O)(=O)[O-])[C@H]8OS(=O)(=O)[O-])[C@H](OS(=O)(=O)[O-])[C@H]7OS(=O)(=O)[O-])[C@H](OS(=O)(=O)[O-])[C@H]6OS(=O)(=O)[O-])[C@H](OS(=O)(=O)[O-])[C@H]5OS(=O)(=O)[O-])CC[C@]4(C)C3CC[C@@]21C.[Na+].[Na+].[Na+].[Na+].[Na+].[Na+].[Na+].[Na+].[Na+].[Na+].[Na+].[Na+].[Na+] (some centres unmarked) [PG545], the “inhibition of CD31 staining” value [1] is given as “Significant inhibition of CD31 staining” and the anti-coagulant properties (coagulation) is given as “mild anti-coagulant properties”.
